Source: patent US11767286B2, “Phenylpropionate compound, preparation method for same, and applications thereof” (SUZHOU PHARMAVAN CO., LTD, priority 2017, dated 2023)
Where two headings read alike, the source gives them in different places.

Tests used:
[1] = test system: rats with acute cerebral ischemia-reperfusion; assay: Blood viscosity of rats with acute cerebral ischemia-reperfusion (blood viscometer); type: in vivo, SD rats; parameters: unit not given here; details: 4 mg/kg iv 2 h after reperfusion; blood 4 h after administration; n=5
Description: Trial method: Effects on inflammatory factors and blood viscosity of rats with acute cerebral ischemia-reperfusion: 70 Male SD rats underwent an MACO surgery by a suture method, and after the surgery, alive rats were randomly grouped (into 7 groups, the number of successful animals in each group was guaranteed to be 6 to 8). Blood perfusion was recovered 2 h after MCAO, and corresponding trial medicaments were intravenously injected 2 h after blood reperfusion. 4 hours after the administration, blood was collected and the rats were sacrificed to take out brain tissues. The brain tissues and part of the blood were centrifuged to collect serum which was detected for inflammatory factors, and part of the blood was detected for blood viscosity by using a blood viscometer. Detected indicators: cerebral infarction area; inflammatory factors IL-1β and TNF-α; and blood viscosity.
Table 2 lists results of effects of phenylpropionate compounds (4 mg/kg) on blood viscosity of rats (n=5).

[2] = test system: SD rats; assay: Acute toxicity, single-dose intravenous injection in SD rats; type: in vivo; details: for tolerance: single-dose intravenous injection (5, 10, 20 mg/kg); for toxic side effects: single-dose intravenous injection up to 20 mg/kg, observed to day 8
Text: In this example, Compound A and Compound C were studied for acute toxicity by a method described below.
Trial method: 30 SD rats, half male and half female, were used. The average weight was 160-200 g for female rats and 180-220 g for male rats when grouped. An individual weight should be within ±20% of the average weight. Before trial, animals were accommodated environment for at least 5 days, and healthy rats (female rats should be not pregnant) were selected as trial animals. Matter inspected during the accommodation period mainly was: whether the rats were consistent with quality indicators required in the order; inspection of general condition; and whether the weight was within the weight range required by the trial. Unqualified abnormal animals were excluded from the trial. A single dosage was injected through tail veins of rats at low, medium, or high dose. The doses were adjusted to be 5 mg/kg, 10 mg/kg, and 20 mg/kg, respectively according to blank preparation pre-trials. A control group was set in which a same volume of vehicle was intravenously injected.
The rats were observed about 0-2 h and 4-6 h after each administration. If a toxicity symptom occurs, the animal may be observed more times. (2) Gross anatomical observation: On the 8th day of the trial, all surviving rats in each group were dissected and observed, and administration sites and abnormal organs and tissues which were identified through gross anatomical observation to be potentially related to trial samples were photographed and recorded. (3) Disposal of dying animals: Status of rats and observation time were recorded, and their weights were measured. (4) Disposal of dead animals: The time of death or when a rat was found dead were recorded. The rat was measured for weight before quickly dissected for gross observation and speculated for cause of death.

[3] = test system: platelet aggregation induced with a platelet activating factor; assay: Maximum platelet aggregation rate of rabbits, induced with PAF; type: cell-based; details: rabbit plasma, 4 mg/kg as printed; for inhibition at 4 mg/kg: Oryctolagus cuniculus, Platelet, n=3, read-out: Inhibiton rate on Aggregation; for Maximum Aggregation Rate: n=3
Description: Effects on maximum platelet aggregation rate of rabbits: 3 Rabbits were anesthetized, and blood was collected from the heart to obtain 14 parts of plasma for each rabbit (1 ml per part of plasma). 7 Parts were induced with ADP to allow platelet aggregation, and 7 parts were induced with a platelet activating factor. After the induction, a solvent, positive control drug aspirin, and 5 samples to be trialed were separately added to the plasma, and maximum platelet aggregation rate was detected with a platelet aggregation meter. The trials were repeated 3 times, and an average was taken. Detected indicator: maximum platelet aggregation rate.
Table 4 lists results of effects of phenylpropionate compounds (4 mg/kg) on platelet aggregation rate of rabbits (n=3).

[4] = Distribution in brain: plasma and intracerebral concentrations after intravenous injection; type: in vivo; details: both sexes, rat, rats, 4 mg/kg iv; for Kp at 10 min / Kp at 60 min / Kp at 180 min: brain/plasma, read-out: Brain/Blood Concentration Ratio
Description: In this example, Compounds A to E, D-bornyl ferulate, and D-tanshinol borneol ester were measured for distribution in brain. Structures of D-bornyl ferulate (Patent Application No.: 201510243181.5) and D-tanshinol borneol ester compounds are as follows:
Method for testing distribution in brain: 42 rats with a weight range of 200±20 g were taken. The rats were randomly divided into 7 groups, with 6 rats per group, half male and half female. Rats were fasted with free access to water for 12 h and then intravenously injected with 4 mg/kg of a compound. Rats in the 3 groups were sacrificed through femoral artery bleeding and collected for blood 10 min, 60 min, 180 min after administration, respectively. Brains were taken out, 0.2 g was weighted, and 1 mL of pure water was added for homogenizing. The blood samples and brain homogenate samples were stored at −20° C.
Distribution of Compounds A to E, and D-bornyl ferulate and D-tanshinol borneol ester compounds in brain: Data on concentrations of Compounds A to E, D-bornyl ferulate, and D-tanshinol borneol ester in plasma and intracerebral in rats intravenously injected with 4 mg/kg of Compounds A to E, D-bornyl ferulate, and D-tanshinol borneol ester are listed in Table 9.

[5] = brain, read-out: Mean Intracerebral Concentration
[6] = plasma, read-out: Mean Plasma Concentration

| Structure (SMILES) | Blood viscosity, High Shear [1] | Blood viscosity, Low Shear [1] | tolerance [2] [mg/kg] | toxic side effects [2] | inhibition at 4 mg/kg [3] [%] | Maximum Aggregation Rate [3] [%] | Kp at 10 min [4] | Kp at 60 min [4] | Kp at 180 min [4] | concentration at 10 min [4, 5] [ng/g] | concentration at 60 min [4, 5] [ng/g] | concentration at 180 min [4, 5] [ng/g] | concentration at 10 min [4, 6] [ng/mL] | concentration at 60 min [4, 6] [ng/mL] | concentration at 180 min [4, 6] [ng/mL] |
| --- | --- | --- | --- | --- | --- | --- | --- | --- | --- | --- | --- | --- | --- | --- | --- |
| COc1cc(CCC(=O)O[C@H]2C[C@H]3CC[C@]2(C)C3(C)C)cc(OC)c1O [Compound C] | 2.70 ± 0.982 | 13.9 ± 1.014 | 20 | no obvious toxic side effects | 52.9 | 33.6 ± 7.9 | 2.9 | 11 | 2 | 2630 ± 167 | 1870 ± 406 | 188 ± 51.9 | 906 ± 145 | 160 ± 49.1 | 92.2 ± 35.5 |
| COc1cc(CCC(=O)O[C@H]2C[C@H]3CC[C@]2(C)C3(C)C)cc(F)c1O [Compound A] | 2.56 ± 0.057 | 13.2 ± 0.535 | 20 | no obvious toxic side effects | 60.2 | 28.4 ± 6.4 | 2.6 | 5.7 | 3.2 | 2640 ± 517 | 1420 ± 309 | 311 ± 115 | 1020 ± 192 | 252 ± 76.5 | 97.3 ± 22.7 |
